Assay results: patent EP3228306A1, “COMPLEX COMPOUND COMPRISING OBETICHOLIC ACID AND CYCLODEXTRIN AND PHARMACEUTICAL FORMULATION COMPRISING THE COMPLEX COMPOUND” (ratiopharm GmbH, priority 2016, dated 2017)
≈ marks a conversion by molar mass, not a printed value. Where two headings read alike, the source gives them in different places.

Key:
[1] = Solubility of OCA:CD complexes in physiologically relevant media; assay type: physicochemical; settings: thermodynamic from solid, 37°C, complex corresponding to 20 mg obeticholic acid in 2 mL
Experimental: Obeticholic acid (OCA) or OCA: Cyclodextrin (CD) complex was weighed into a glass vial, followed by addition of 1 or 2 ml solvent (water, 0.01 N HCl, phosphate buffer pH 6.8 and FaSSIF). A stirring bar was added, the vial was fixed in a block heater at 37°C and the suspension was stirred with approx. 250 rpm. After 15 min and 1 h, samples were withdrawn, filtered through a 0.2 µm disposable filter, 100 µl of the clear filtrate were diluted with 900 µl acetonitrile (ACN):Water (1:1) and 1 µl thereof were analyzed by UHPLC/UV.
Solubilities of OCA:CD complexes were determined by stirring an amount of complex which corresponds to 20 mg of obeticholic acid (calculated from the known drug loads) in 2 mL of solvent for 15 min and 60 min at 37°C according to the method described above under "Analytical Methods". Solubility values are given in mg/ml.

[2] = cited from earlier work
[3] = Solubility of OCA in concentrated aqueous CD solutions (Experiment 2); assay type: physicochemical; settings: stirred 60 h
Experimental: Variable amounts of solid OCA (left column of the Tables given below) were stirred in aqueous CD-solutions (14% (w/w) α-CD, 1.8% β-CD, 20% γ-CD, 20% HP-β-CD, 30% SB-β-CD, 30% RM-β-CD, and 40% HP-γ-CD) for 60 h. Aliquots were filtered through 0.2 µm disposable PTFE filters and the filtrates were analyzed by HPLC/UV. The concentration of OCA was determined based on a calibration curve which was established by twofold analysis of five calibration standards with 0.01 mg/mL to 1.0 mg/mL OCA.

[4] = reported in WO 2013/192097; measured in 0.1 N HCl after equilibration under stirring for one week at 25°C; cited from earlier work

solubility at 15 min ([1]; 0.01 N HCl, pH 2.2, simulated gastric fluid, read-out: Solubility, 0.01 N HCl (pH 2.2), 15 min): < 0.01 mg/mL
solubility at 60 min ([1]; 0.01 N HCl, pH 2.2, simulated gastric fluid, read-out: Solubility, 0.01 N HCl (pH 2.2), 60 min): < 0.01 mg/mL
solubility at 15 min ([1]; 50 mM KH2PO4 phosphate buffer, pH 6.5, aqueous buffer, read-out: Solubility, 50 mM KH2PO4 (pH 6.5), 15 min): 0.11 mg/mL (≈ 262 µM)
solubility at 60 min ([1]; 50 mM KH2PO4 phosphate buffer, pH 6.5, aqueous buffer, read-out: Solubility, 50 mM KH2PO4 (pH 6.5), 60 min): 0.11 mg/mL (≈ 262 µM)
solubility at 15 min ([1]; FaSSIF, pH 6.5, fassif, Fasted State Simulated Intestinal Fluid, read-out: Solubility, FassiF* (pH 6.5), 15 min): 0.52 mg/mL (≈ 1240 µM)
solubility at 60 min ([1]; FaSSIF, pH 6.5, fassif, Fasted State Simulated Intestinal Fluid, read-out: Solubility, FassiF* (pH 6.5), 60 min): 0.42 mg/mL (≈ 998 µM)
solubility at 15 min ([1]; water, pH 7, water, read-out: Solubility, Water (pH 7), 15 min): < 0.01 mg/mL
solubility at 60 min ([1]; water, pH 7, water, read-out: Solubility, Water (pH 7), 60 min): < 0.01 mg/mL
dissolved OCA ([3]; HP-β-CD (20%) aqueous solution, OCA 10 mg/mL weighed): 9.425 mg/mL
dissolved OCA ([3]; HP-β-CD (20%) aqueous solution, OCA 20 mg/mL weighed): 18.716 mg/mL
dissolved OCA ([3]; HP-β-CD (20%) aqueous solution, OCA 40 mg/mL weighed): 37.499 mg/mL
dissolved OCA ([3]; HP-β-CD (20%) aqueous solution, OCA 50 mg/mL weighed): 45.473 mg/mL
dissolved OCA ([3]; HP-β-CD (20%) aqueous solution, OCA 60 mg/mL weighed): 45.785 mg/mL
dissolved OCA ([3]; HP-γ-CD (40%) aqueous solution, OCA 10 mg/mL weighed): 8.704 mg/mL
dissolved OCA ([3]; HP-γ-CD (40%) aqueous solution, OCA 20 mg/mL weighed): 18.095 mg/mL
dissolved OCA ([3]; HP-γ-CD (40%) aqueous solution, OCA 40 mg/mL weighed): 35.632 mg/mL
dissolved OCA ([3]; HP-γ-CD (40%) aqueous solution, OCA 80 mg/mL weighed): 62.989 mg/mL
dissolved OCA ([3]; RM-β-CD (30%) aqueous solution, OCA 20 mg/mL weighed): 17.374 mg/mL
dissolved OCA ([3]; RM-β-CD (30%) aqueous solution, OCA 40 mg/mL weighed): 37.316 mg/mL
dissolved OCA ([3]; RM-β-CD (30%) aqueous solution, OCA 80 mg/mL weighed): 63.629 mg/mL
dissolved OCA ([3]; RM-β-CD (30%) aqueous solution, OCA 160 mg/mL weighed): 78.693 mg/mL
dissolved OCA ([3]; SB-β-CD (30%) aqueous solution, OCA 20 mg/mL weighed): 17.545 mg/mL
dissolved OCA ([3]; SB-β-CD (30%) aqueous solution, OCA 40 mg/mL weighed): 38.735 mg/mL
dissolved OCA ([3]; SB-β-CD (30%) aqueous solution, OCA 80 mg/mL weighed): 60.767 mg/mL
dissolved OCA ([3]; SB-β-CD (30%) aqueous solution, OCA 160 mg/mL weighed): 57.080 mg/mL
dissolved OCA ([3]; α-CD (14%) aqueous solution, OCA 5 mg/mL weighed): 4.614 mg/mL
dissolved OCA ([3]; α-CD (14%) aqueous solution, OCA 10 mg/mL weighed): 6.154 mg/mL
dissolved OCA ([3]; α-CD (14%) aqueous solution, OCA 20 mg/mL weighed): 6.937 mg/mL
dissolved OCA ([3]; α-CD (14%) aqueous solution, OCA 40 mg/mL weighed): 7.141 mg/mL
dissolved OCA ([3]; β-CD (1.8%) aqueous solution, OCA 2.5 mg/mL weighed): 2.229 mg/mL
dissolved OCA ([3]; β-CD (1.8%) aqueous solution, OCA 5 mg/mL weighed): 4.312 mg/mL
dissolved OCA ([3]; β-CD (1.8%) aqueous solution, OCA 10 mg/mL weighed): 4.830 mg/mL
dissolved OCA ([3]; β-CD (1.8%) aqueous solution, OCA 20 mg/mL weighed): 4.880 mg/mL
dissolved OCA ([3]; γ-CD (20%) aqueous solution, OCA 5 mg/mL weighed): 0.069 mg/mL
dissolved OCA ([3]; γ-CD (20%) aqueous solution, OCA 10 mg/mL weighed): 0.069 mg/mL
dissolved OCA ([3]; γ-CD (20%) aqueous solution, OCA 20 mg/mL weighed): 0.066 mg/mL
dissolved OCA ([3]; γ-CD (20%) aqueous solution, OCA 40 mg/mL weighed): 0.055 mg/mL
SMILES: CC[C@H]1[C@@H](O)[C@@H]2[C@H](CC[C@]3(C)[C@@H]([C@H](C)CCC(=O)O)CC[C@@H]23)[C@@]2(C)CC[C@@H](O)C[C@@H]12 [OCA, 6α-ethyl-chenodeoxycholic acid]
thermodynamic pKa [2]: about 5
water solubility [4]: 0.0075 mg/mL (≈ 17.8 µM)
